The results in this text go back to US20110206779A1, “GASTRIC ULCER THERAPEUTIC AGENT” (priority 2010, published 2011).

A short description of series [1]: Measurement of adsorption amount of naphthol yellow S. It counts as physicochemical. The following applies: 1.0 g powder in 500 mL NYS aqueous solution 100 ppm, 30° C., 1 hour. On the procedure:
[Measurement of Adsorption Amount of Naphthol Yellow S]
1.0 g of a powder sample was added to 500 mL of an aqueous solution of naphthol yellow S (NYS) (concentration 100 ppm). The mixture was stirred at 30° C. for 1 hour and then filtered to obtain a filtrate. The concentration of NYS in the filtrate was measured with a spectrophotometer and the adsorption amount of the sample was obtained.

Series [2] can be described thus: Antacid power, measured according to the pharmacopoeia of Japan. It counts as physicochemical.
The test system of series [3] is water immersion restraint stress ulcer. Put plainly: Influence on rat water immersion restraint stress ulcer. Type of series: in vivo, Wister rats. Conditions: oral, 30 minutes before stress, 7 hours stress; for Length of gastric mucosa impairment: control 14.7 mm. From the text:
[Influence on Rat Water Immersion Restraint Stress Ulcer]
The powders obtained in Examples 1, 2 and 3, a mixed powder containing the powder obtained in Example 2 and basic zinc carbonate (Zn=58%), the powders obtained in Comparative Examples 1 and 2, lansoprazole as a proton pump inhibitor and sucralfate, which is most highly evaluated as a gastric mucosa protective agent, were used as test specimens. These test specimens were examined for effect on water immersion restraint stress ulcer, which is an acute ulcer model.
Eight Wister rats as a group were preliminarily reared for a few days. The rats were fasted for 24 hours. Then, the rats were placed in a stress cage according to the method of Takagi et al. (Jap, J, Pharacol, 18:9, 1968). The rats were immersed up to xiphoid process parts in a water tank having a temperature of 23° C. and the rats were subjected to stress for 7 hours. Then, their stomachs were taken out under ether anesthesia. About 12 mL of 2% formalin physiological saline solution was injected into each stomach, to fix the stomach. Then, each stomach was cut out along a curvatura ventriculi major side. The length (mm) of mucosa ulcer at a glandular stomach portion was measured.
As to oral administration of the test specimens, 5 mL/kg (rat weight) of a liquid containing a test specimen was administered 30 minutes before the load of the stress. In Control, the same amount of water was administered.

Regarding `Cc1c(OCC(F)(F)F)ccnc1C[S+]([O-])c1nc2ccccc2[nH]1` (centres unmarked) [Lansoprazole, lansoprazole], the NYS adsorption amount in series [1] was determined as 0 mg/g. For the same compound, the Antacid power in series [2] stood at 0 mL/g. Also, in series [3] (dosage 40 mg/kg), the Inhibition rate worked out at 78% and the “Length of gastric mucosa impairment” value was 3.2 mm.

sucralfate had an NYS adsorption amount in series [1] of 0.60 mg/g. This compound displayed an Antacid power in series [2] of 168 mL/g. Also, in series [3] (dosage 500 mg/kg), the Inhibition rate is 71% and the “Length of gastric mucosa impairment” value is on record as 4.3 mm.
